Assay [1] concerns the target D(2) dopamine receptor (Rattus norvegicus, UniProt P61169).
Assay [2] addresses D(1A) dopamine receptor (Rattus norvegicus, UniProt P18901).
The species named for assay [3] is Rattus norvegicus. Briefly: Effect on cAMP synthesis in rat striatal membranes as increase above basal value at a concentration of 10 uM; NS= no synthesis detected. It counts as functional. The conditions noted are these: Striatum, Membrane.
Assay [4] is filed under the species Rattus norvegicus. Briefly: Effect on cAMP synthesis in rat striatal membranes as increase above basal value at a concentration of 10 uM. Type of assay: functional. The note with it: Striatum, Membrane.
Assay [5] addresses D(2) dopamine receptor (Homo sapiens, UniProt P14416). Briefly: In vitro receptor binding affinity against Dopamine receptor D2.
Assay [6] has as its target D(1A) dopamine receptor (Homo sapiens, UniProt P21728). Put plainly: Affinity towards Dopamine receptor D1.
The species entered for assay [7] is Rattus norvegicus. Briefly: Effect on cAMP synthesis in rat striatal membranes as increase above basal value at a concentration of 10 uM in the presence of 1 uM of SCH 23390. The conditions noted are these: Striatum, Membrane. It counts as functional.

Drawing on ChEMBL document CHEMBL1128439, “Evaluation of cis- and trans-9- and 11-hydroxy-5,6,6a,7,8,12b-hexahydrobenzo[a]phenanthridines as structurally rigid, selective D1 dopamine receptor ligands” (J Med Chem, 1995), this text covers IC50 and Increase for eleven compounds.

The source made the active and inactive calls. No cut-off for these calls is given here.

As a reminder, the IC50 is the concentration at which inhibition is half-maximal.

D(2) dopamine receptor (Rattus norvegicus, UniProt P61169), sequence (P61169 whole entry): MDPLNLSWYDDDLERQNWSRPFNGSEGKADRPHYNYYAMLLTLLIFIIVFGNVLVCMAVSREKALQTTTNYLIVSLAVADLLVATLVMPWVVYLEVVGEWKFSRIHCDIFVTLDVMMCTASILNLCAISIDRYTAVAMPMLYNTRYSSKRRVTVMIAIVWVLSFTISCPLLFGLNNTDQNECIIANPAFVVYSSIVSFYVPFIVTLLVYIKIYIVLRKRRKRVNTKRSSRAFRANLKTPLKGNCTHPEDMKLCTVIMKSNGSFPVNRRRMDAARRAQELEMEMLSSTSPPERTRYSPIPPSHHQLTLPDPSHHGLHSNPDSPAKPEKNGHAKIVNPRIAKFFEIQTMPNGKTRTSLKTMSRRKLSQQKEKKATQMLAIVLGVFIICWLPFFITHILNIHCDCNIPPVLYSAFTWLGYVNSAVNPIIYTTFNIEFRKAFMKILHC
D(1A) dopamine receptor (Rattus norvegicus, UniProt P18901), sequence (P18901 whole entry): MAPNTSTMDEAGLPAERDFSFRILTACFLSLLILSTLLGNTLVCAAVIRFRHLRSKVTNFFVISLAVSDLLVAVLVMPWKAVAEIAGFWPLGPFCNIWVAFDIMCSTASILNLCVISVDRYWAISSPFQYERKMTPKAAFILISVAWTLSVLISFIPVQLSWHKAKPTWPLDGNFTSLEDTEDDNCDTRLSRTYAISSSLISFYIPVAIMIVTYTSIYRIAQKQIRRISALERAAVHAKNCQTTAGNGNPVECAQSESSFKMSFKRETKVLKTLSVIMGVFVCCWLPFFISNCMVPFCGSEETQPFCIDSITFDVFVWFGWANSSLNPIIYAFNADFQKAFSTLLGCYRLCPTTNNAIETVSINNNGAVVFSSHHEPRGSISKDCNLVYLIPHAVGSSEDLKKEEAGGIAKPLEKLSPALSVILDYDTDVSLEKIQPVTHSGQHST
D(1A) dopamine receptor (Homo sapiens, UniProt P21728), sequence (P21728 whole entry): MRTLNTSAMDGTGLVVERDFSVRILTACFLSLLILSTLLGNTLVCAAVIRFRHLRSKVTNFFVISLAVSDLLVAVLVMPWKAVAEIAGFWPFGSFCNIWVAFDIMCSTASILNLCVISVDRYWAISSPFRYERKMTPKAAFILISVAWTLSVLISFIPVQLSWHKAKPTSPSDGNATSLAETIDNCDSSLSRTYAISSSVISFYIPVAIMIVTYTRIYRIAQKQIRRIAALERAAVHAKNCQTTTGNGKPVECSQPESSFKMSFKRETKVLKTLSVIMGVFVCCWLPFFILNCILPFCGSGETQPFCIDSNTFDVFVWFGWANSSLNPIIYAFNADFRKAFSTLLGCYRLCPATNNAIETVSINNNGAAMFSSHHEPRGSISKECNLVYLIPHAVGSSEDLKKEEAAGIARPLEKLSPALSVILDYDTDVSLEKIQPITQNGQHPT
D(2) dopamine receptor (Homo sapiens, UniProt P14416), sequence (P14416 whole entry): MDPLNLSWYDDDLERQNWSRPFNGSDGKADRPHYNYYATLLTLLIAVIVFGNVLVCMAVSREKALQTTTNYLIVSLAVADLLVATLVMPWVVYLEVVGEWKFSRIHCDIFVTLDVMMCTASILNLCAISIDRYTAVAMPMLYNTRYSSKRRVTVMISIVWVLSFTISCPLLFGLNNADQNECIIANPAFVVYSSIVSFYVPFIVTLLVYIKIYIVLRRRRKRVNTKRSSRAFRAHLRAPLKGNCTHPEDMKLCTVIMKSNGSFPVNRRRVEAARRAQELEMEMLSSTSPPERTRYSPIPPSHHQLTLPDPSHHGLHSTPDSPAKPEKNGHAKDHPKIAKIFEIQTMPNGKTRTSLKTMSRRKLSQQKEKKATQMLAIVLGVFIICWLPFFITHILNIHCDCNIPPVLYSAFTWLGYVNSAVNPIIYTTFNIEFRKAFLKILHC

For the compound `CN1Cc2ccccc2[C@@H]2c3ccc(O)c(O)c3CC[C@H]21`, the concentration for half-maximal inhibition (IC50) in assay [1] is 121 nM; in assay [2], 955 nM. In assay [3], the Increase result is “inactive”.

Take `Oc1ccc2c(c1)[C@H]1c3ccccc3CN[C@@H]1CC2`: the IC50 in assay [1] is 631 nM; in assay [2], 102 nM. Also, in assay [4], the Increase is 15%.

Consider `CCCN1Cc2ccccc2[C@@H]2c3cc(O)ccc3CC[C@H]21`, for which the values for the IC50 in assay [1] and in assay [2] were 210 nM and 529 nM, respectively.

In the case of `Oc1ccc2c(c1)[C@@H]1c3ccccc3CN[C@@H]1CC2`, the IC50 in assay [1] stood at 15500 nM; in assay [2], 16700 nM. The Increase entry in assay [3] is “inactive”.

As for `NC1CCc2cc(O)c(O)cc2[C@H]1c1ccccc1` (some centres not stated), the IC50 in assay [5] and in assay [6] was above 1000 nM throughout.

Consider `Oc1cccc2c1CC[C@H]1NCc3ccccc3[C@H]21`, for which the IC50 in assay [1] amounted to 532 nM; in assay [2], 5550 nM.

As to `Oc1cc2c(cc1O)[C@H]1c3ccccc3CN[C@@H]1CC2`, the Increase in assay [7] amounted to 1%; in assay [4], 103%.

`CN1Cc2ccccc2[C@@H]2c3cc(O)ccc3CC[C@H]21`: the values for the IC50 in assay [1] and in assay [2] were 359 nM and 115 nM, respectively. The compound further returned an Increase in assay [4] of 8%.

Consider `Oc1cccc2c1CC[C@H]1NCc3ccccc3[C@@H]21`, for which the IC50 in assay [1] amounted to 2000 nM; in assay [2] it was 2900 nM. Also, the Increase result in assay [3] was “inactive”.

`NCCc1ccc(O)c(O)c1` registered an Increase in assay [4] of 100%.

As for `CN1Cc2ccccc2[C@@H]2c3cc(O)c(Br)cc3CC[C@H]21`, the IC50 amounted to 3000 nM in assay [1] and 322 nM in assay [2]. The Increase result in assay [3] is “inactive”.
